# Measured values as given in patent US6197752A, “Glycomimetics as selectin antagonists and pharmaceuticals having antiinflammatory activity prepared therefrom” (Glycorex AB, priority 1995, dated 2001).
# Like-named read-outs stand apart in the source and are kept apart here.
# Legend:
# [1] = system: P-selectin-dependent lung injuries; details: animal experiments; Mulligan et al. 1993; cited from earlier work
# [2] = system: myocardial reperfusion injuries; details: animal experiments; Buerke et al. 1994; cited from earlier work
# [3] = system: selectins; details: cited from earlier work
# [4] = WO 95/04526; WO 94/24145; cited from earlier work
# [5] = system: 5-lipoxygenase; details: WO 95/04526; WO 94/24145; cited from earlier work
# [6] = target: T1, P-Selectin (Homo sapiens, UniProt P16109); details: WO 95/04526, WO 94/24145, cited from earlier work
# T1 sequence (P16109 42-830): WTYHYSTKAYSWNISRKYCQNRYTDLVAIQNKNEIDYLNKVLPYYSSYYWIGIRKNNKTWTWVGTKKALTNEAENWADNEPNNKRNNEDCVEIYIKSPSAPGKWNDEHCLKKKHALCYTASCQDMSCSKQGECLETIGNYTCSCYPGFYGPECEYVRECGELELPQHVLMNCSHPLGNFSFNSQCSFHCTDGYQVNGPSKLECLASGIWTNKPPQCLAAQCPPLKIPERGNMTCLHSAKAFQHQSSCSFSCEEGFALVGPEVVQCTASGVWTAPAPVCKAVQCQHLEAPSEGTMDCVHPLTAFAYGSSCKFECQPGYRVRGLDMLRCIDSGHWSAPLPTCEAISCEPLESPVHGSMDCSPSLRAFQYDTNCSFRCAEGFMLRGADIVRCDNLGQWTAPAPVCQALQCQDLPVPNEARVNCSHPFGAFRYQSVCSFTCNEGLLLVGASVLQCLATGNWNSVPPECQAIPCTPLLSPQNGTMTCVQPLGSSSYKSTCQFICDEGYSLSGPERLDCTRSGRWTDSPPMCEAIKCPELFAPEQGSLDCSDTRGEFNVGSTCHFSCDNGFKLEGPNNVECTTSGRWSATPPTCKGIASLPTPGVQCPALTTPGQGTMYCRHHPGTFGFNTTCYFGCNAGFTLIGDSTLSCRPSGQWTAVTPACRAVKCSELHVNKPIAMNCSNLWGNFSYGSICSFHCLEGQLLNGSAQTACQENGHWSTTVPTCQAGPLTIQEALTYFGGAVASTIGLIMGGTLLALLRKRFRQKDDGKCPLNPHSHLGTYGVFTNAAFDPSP
# [7] = system: leukocyte adhesion on the endothelium; assay: LPS-induced leukocyte adhesion in vivo, intravital microscopy in the mesenterium of the rat; details: SPRD (m)
# Excerpt: In inflammatory processes and other states which activate the cytokines, a critical part is played by the destruction of tissue by means of leukocytes which migrate in or which block the microcirculation. The first phase, which is critical for the subsequent course of the disease, is the activation of leukocytes within the blood stream, especially in the pre- and post-capillary area. […] All subsequent leukocyte effects, i.e. active migration through the vessel wall and subsequent oriented migration in the tissue, are secondary reactions (Harlan, J. M., Leukocyte-endothelial interaction, Blood 65, 513-525,1985). […]
# The induced adhesion of leukocytes is quantified by an investigation technique involving intravital microscopy in the mesenterium of the rat (Atherton A. and Born G.V.R., Quantitative investigations of the adhesiveness of circulating polymorphonuclear leukocytes to blood vessel walls. J. Physiol. 222, 447-474,1972; Seiffge, D. Methoden zur Untersuchung der Rezeptor-vermittelten Interaktion zwischen Leukozyten und Endotheizellen im Entzundungsgeschehen [Methods of investigating receptor-mediated interaction between leukocytes and endothelial cells in the case of inflammation] in: Ersatz- und Erganzungsmethoden zu Tierversuchen in der biomedizinischen Forschung, Schoffl, H. et al., (eds.) Springer, 1995 (in press)). […]
structure (smiles),measurement,setting,value
CC(=O)NC1C(O)CC(OC2C(O)C(CO)OC(OC3C(CO)OC(O)C(NC(C)=O)C3OC3OC(C)C(O)C(O)C3O)C2O)(C(=O)O)OC1C(O)C(O)CO (stereo not shown) [SLeX],use in P-selectin-dependent lung injuries,[1],successfully used
same,use in myocardial reperfusion injuries,[2],successfully used
CC1OC(CC(=O)C2CCCC2C(=O)NC(Cc2ccccc2)C(=O)O)C(O)C(O)C1O (stereo not shown) [Compound 2],IC50,"[3]; glycopeptide analogs (WO 95/04751), region of up to",≤ 1000 µM
C=C(CO[C@H]1CC[C@]2(C)[C@H]3C(=O)C=C4[C@@H]5C[C@@](C)(C(=O)O)CC[C@]5(C)CC[C@@]4(C)[C@]3(C)CC[C@H]2C1(C)C)C[C@@H]1O[C@@H](C)[C@@H](O)[C@@H](O)[C@@H]1O [Compound 4a],antimetastatic action,[4],antimetastatic action
same,inhibition of 5-lipoxygenase,[5],inhibition of 5-lipoxygenase
same,P-selectin inhibition (in words),[6],P-selectin inhibition
same,IC50,[6]; read-out: IC50 for binding to P-selectin,750 µM
C[C@@H]1O[C@@H](CCCOC(=O)N2CCC(C(=O)O)CC2)[C@@H](O)[C@H](O)[C@@H]1O [Compound 12c],inhibition of leukocyte adhesion,"[7]; 3 mg/kg, 1 day i.v.",58%
same,inhibition of leukocyte adhesion,"[7]; 20 mg/kg, 1 day p.o.",29%
CC1OC(CCCCC2OC(CO)C(O)C(CCC(=O)O)C2O)C(O)C(O)C1O (stereo not shown) [Compound 3],IC50,"[3]; Wong et al., J. Am. Chem. Soc. 1995",10000 to 20000 µM
